Data reported in ChEMBL document CHEMBL4177529, “Penicilones A-D, Anti-MRSA Azaphilones from the Marine-Derived Fungus Penicillium janthinellum HK1-6” (2017).
In brackets after ≈: the same amount, converted by molar mass.

Experiments:
Staphylococcus aureus [1] = test: Antibacterial activity against methicillin-susceptible Staphylococcus aureus ATCC 29213 by XTT assay
Staphylococcus aureus [2] = test: Antibacterial activity against methicillin-resistant Staphylococcus aureus ATCC 43300 by XTT assay
Staphylococcus aureus [3] = test: Antibacterial activity against methicillin-resistant Staphylococcus aureus ATCC 33591 by XTT assay
Enterococcus faecium = test: Antibacterial activity against vancomycin-susceptible Enterococcus faecium ATCC 35667 by XTT assay
Enterococcus faecalis = test: microbe, parasite or virus in culture; assay type: functional; conditions: ATCC 51299
Description: Antibacterial activity against vancomycin-susceptible Enterococcus faecalis ATCC 51299 by XTT assay

Escherichia coli = test: Antibacterial activity against Escherichia coli ATCC 25922 by XTT assay; assay type: functional
Staphylococcus aureus [4] = test: Antibacterial activity against methicillin-susceptible Staphylococcus aureus ATCC 25923 by XTT assay

Compound	MIC (Staphylococcus aureus [1])	MIC (Staphylococcus aureus [2])	MIC (Staphylococcus aureus [3])	MIC (Enterococcus faecium)	MIC (Enterococcus faecalis)	MIC (Escherichia coli)	MIC (Staphylococcus aureus [4])
CCCCCCC(C)/C=C(\C)C(=O)O[C@@]1(C)C(=O)C=C2C=C(c3c(C)cccc3O)OC=C2C1=O (stereo partly specified)	3.13 µg/mL (≈ 6.54 µM)	3.13 µg/mL (≈ 6.54 µM)	3.13 µg/mL (≈ 6.54 µM)	3.13 µg/mL (≈ 6.54 µM)	3.13 µg/mL (≈ 6.54 µM)	> 50 µg/mL	3.13 µg/mL (≈ 6.54 µM)
Cc1cccc(O)c1C1=CC2=C(Cl)C(=O)[C@@](C)(O)C(=O)C2=CO1	> 50 µg/mL	> 50 µg/mL	50 µg/mL (≈ 150 µM)	50 µg/mL (≈ 150 µM)	50 µg/mL (≈ 150 µM)	> 50 µg/mL	25 µg/mL (≈ 75.1 µM)
CCCCCCC(C)/C=C(\C)C(=O)O[C@@]1(C)C(=O)C2=COC(C3=C(C)CC(O)CC3=O)=CC2=C(Cl)C1=O (stereo partly specified)	6.25 µg/mL (≈ 11.8 µM)	6.25 µg/mL (≈ 11.8 µM)	6.25 µg/mL (≈ 11.8 µM)	12.5 µg/mL (≈ 23.5 µM)	12.5 µg/mL (≈ 23.5 µM)	> 50 µg/mL	12.5 µg/mL (≈ 23.5 µM)
Cc1onc(-c2ccccc2)c1C(=O)N[C@@H]1C(=O)N2[C@@H]1SC(C)(C)[C@@H]2C(=O)[O-].[Na+]	3.13 µg/mL	> 100 µg/mL	> 100 µg/mL	> 100 µg/mL	50 µg/mL	> 100 µg/mL	0.78 µg/mL
CCCCCCC(C)/C=C(\C)C(=O)O[C@@]1(C)C(=O)C=C2C=C(C3=C(C)C[C@@H](O)CC3=O)OC=C2C1=O (stereo partly specified)	> 50 µg/mL	> 50 µg/mL	> 50 µg/mL	> 50 µg/mL	> 50 µg/mL	> 50 µg/mL	> 50 µg/mL
CN[C@H](CC(C)C)C(=O)N[C@H]1C(=O)N[C@@H](CC(N)=O)C(=O)N[C@H]2C(=O)N[C@H]3C(=O)N[C@H](C(=O)N[C@H](C(=O)O)c4cc(O)cc(O)c4-c4cc3ccc4O)[C@H](O)c3ccc(c(Cl)c3)Oc3cc2cc(c3O[C@@H]2O[C@H](CO)[C@@H](O)[C@H](O)[C@H]2O[C@H]2C[C@](C)(N)[C@H](O)[C@H](C)O2)Oc2ccc(cc2Cl)[C@H]1O.Cl [VANCOMYCIN HYDROCHLORIDE]	0.39 µg/mL	0.39 µg/mL	0.78 µg/mL	0.39 µg/mL	6.25 µg/mL	> 100 µg/mL	1.56 µg/mL
Cc1cccc(O)c1C1=CC2=CC(=O)[C@](C)(O)C(=O)C2=CO1	> 50 µg/mL	> 50 µg/mL	> 50 µg/mL	> 50 µg/mL	> 50 µg/mL	> 50 µg/mL	> 50 µg/mL
CCCCCCC(C)/C=C(\C)C(=O)O[C@@]1(C)C(=O)C2=COC(c3c(C)cccc3O)=CC2=C(Cl)C1=O (stereo partly specified)	3.13 µg/mL (≈ 6.1 µM)	6.25 µg/mL (≈ 12.2 µM)	6.25 µg/mL (≈ 12.2 µM)	12.5 µg/mL (≈ 24.4 µM)	6.25 µg/mL (≈ 12.2 µM)	> 50 µg/mL	12.5 µg/mL (≈ 24.4 µM)
